Consider three compounds from patent US6326014A, “Use of oxamate derivatives as depigmenting agents” (L, Oreal, priority 1997, dated 2001).

For this assay, the system named is co-culture of keratinocytes and melanocytes. Briefly: Depigmenting activity: inhibition of melanogenesis in co-culture of keratinocytes and melanocytes. The format is cell-based. The following applies: for IC50: keratinocyte/melanocyte co-culture, read-out: IC50 (50% inhibition of melanogenesis). How it is done: This test corresponds to the one described in patent FR 2,734,825 filed by the Applicant, as well as in the article by R. Schmidt, P. […], Anal. Biochem., 235(2), 113-18, (1996), the entire contents of each of which are hereby incorporated by reference. […] For each test compound, the IC50 value, which corresponds to the micromolar concentration (μM) for which a 50% inhibition of melanogenesis is observed, is determined. Moreover, a class is given to each of these compounds as regards their maximum depigmenting activity: […]

A word on the IC50: it is the point on the concentration scale where inhibition reaches its midpoint. Turning to `CCOC(=O)C(=O)Nc1ccc(O)cc1` [Example 1, Ethyl N-(4-hydroxyphenyl)oxamate], the IC50 is 10 µM. Where the note is “at 50 μM”, the “Class (maximum depigmenting activity)” value is given as 3 (60 to 100% inhibition of melanogenesis relative to the control (same experiment without test compound)).

On to `O=C(NC[C@H](O)[C@@H](O)[C@H](O)[C@H](O)CO)C(=O)Nc1ccc(O)cc1` [Example 2, N-(4-hydroxyphenyl)-N'-(D-glucamino)oxamide], for which the IC50 was 10 µM. Moreover, where the note is “at 10 μM”, the “Class (maximum depigmenting activity)” value is 2 (30 to 60% inhibition of melanogenesis relative to the control (same experiment without test compound)).

With `O=c1cc(CO)occ1O` [Kojic acid, reference compound], the concentration for half-maximal inhibition (IC50) turned out to be 500 µM. In addition, for the setting “at 500 μM”, the “Class (maximum depigmenting activity)” value is listed as 2 (30 to 60% inhibition of melanogenesis relative to the control (same experiment without test compound)).
